These are literature values, as cited in patent publication US9259452B2, “Deacetylase inhibitor therapy” (Celgene Corporation, priority 2006, dated 2016).

The conditions of the series: cited from earlier work; for ECG effects reported: clinical trials.

The structures appear in SMILES notation. Like-named read-outs stand apart in the source and are kept apart here.

For the compound `O=C(/C=C/c1ccc(CN(CCO)CCc2cc3ccccc3[nH]2)cc1)NO` [LAQ824], the ECG effects reported entry is listed as “non-specific T-wave or ST segment abnormalities”. Moreover, the “Change in QTc interval” value (77 patients treated) is listed as “statistically significant increase”. The “Patients having QTc prolongation of greater than 60 ms” value (of 77 patients treated) was 10%. In addition, the “Event in one patient with QTc greater than 500 ms” value (when re-treated at a lower dose level) is on record as “torsades de pointes”.

In the case of `Cc1[nH]c2ccccc2c1CCNCc1ccc(/C=C/C(=O)NO)cc1` [LBH589], the “Patients with QTc prolongation of greater than 500 ms” value is, setting by setting: (12 patients treated at higher dose levels) 42%; (of 12 patients treated at higher dose levels) 5.

Turning to `O=C(/C=C/c1cccc(S(=O)(=O)Nc2ccccc2)c1)NO` [PXD101], where the note is “phase I trials”, the Supraventricular tachycardia reported entry is on record as “dose limiting toxicity”.

For the compound `O=C(CCCCCCC(=O)Nc1ccccc1)NO` [SAHA, Suberoylanilide Hydroxamic Acid], the ECG effects reported result was “non-specific T-wave or ST segment abnormalities”.
